Assay results: ChEMBL document CHEMBL2074444, “A comparison of commonly used polyethoxylated pharmaceutical excipients on their ability to inhibit P-glycoprotein activity in vitro” (J Pharm Sci, 2002)

Key:
Type in all cases: functional, cell-based
[1] = biological target: T1, ATP-dependent translocase ABCB1 (Homo sapiens, UniProt P08183); test: TP_TRANSPORTER: inhibition of Taxol transepithelial transport (basal to apical) (Taxol: 0.04-0.06 uM, PEG-300: 20 %) in MDR1-expressing MDCK cells; details: dog
[2] = biological target: T1, ATP-dependent translocase ABCB1; test: TP_TRANSPORTER: inhibition of Taxol transepithelial transport (basal to apical) (Taxol: 0.04-0.06 uM, PEG-300: 20 %) in Caco-2 cells
[3] = biological target: T1, ATP-dependent translocase ABCB1; test: TP_TRANSPORTER: inhibition of Taxol transepithelial transport (basal to apical)(Taxol: 0.04-0.06 uM, Tween 80: 0.05 %) in Caco-2 cells
[4] = biological target: T1, ATP-dependent translocase ABCB1; test: TP_TRANSPORTER: inhibition of Taxol transepithelial transport (basal to apical)(Taxol: 0.04-0.06 uM, Tween 80: 0.05 %) in MDR1-expressing MDCK cells; details: dog
[5] = biological target: T1, ATP-dependent translocase ABCB1; test: TP_TRANSPORTER: inhibition of Taxol transepithelial transport (basal to apical)(Taxol: 0.04-0.06 uM, Cremophor EL: 0.1 %) in MDR1-expressing MDCK cells; details: dog
[6] = biological target: T1, ATP-dependent translocase ABCB1; test: TP_TRANSPORTER: inhibition of Taxol transepithelial transport (basal to apical)(Taxol: 0.04-0.06 uM, Cremophor EL: 0.1 %) in Caco-2 cells

T1 sequence (P08183 whole entry): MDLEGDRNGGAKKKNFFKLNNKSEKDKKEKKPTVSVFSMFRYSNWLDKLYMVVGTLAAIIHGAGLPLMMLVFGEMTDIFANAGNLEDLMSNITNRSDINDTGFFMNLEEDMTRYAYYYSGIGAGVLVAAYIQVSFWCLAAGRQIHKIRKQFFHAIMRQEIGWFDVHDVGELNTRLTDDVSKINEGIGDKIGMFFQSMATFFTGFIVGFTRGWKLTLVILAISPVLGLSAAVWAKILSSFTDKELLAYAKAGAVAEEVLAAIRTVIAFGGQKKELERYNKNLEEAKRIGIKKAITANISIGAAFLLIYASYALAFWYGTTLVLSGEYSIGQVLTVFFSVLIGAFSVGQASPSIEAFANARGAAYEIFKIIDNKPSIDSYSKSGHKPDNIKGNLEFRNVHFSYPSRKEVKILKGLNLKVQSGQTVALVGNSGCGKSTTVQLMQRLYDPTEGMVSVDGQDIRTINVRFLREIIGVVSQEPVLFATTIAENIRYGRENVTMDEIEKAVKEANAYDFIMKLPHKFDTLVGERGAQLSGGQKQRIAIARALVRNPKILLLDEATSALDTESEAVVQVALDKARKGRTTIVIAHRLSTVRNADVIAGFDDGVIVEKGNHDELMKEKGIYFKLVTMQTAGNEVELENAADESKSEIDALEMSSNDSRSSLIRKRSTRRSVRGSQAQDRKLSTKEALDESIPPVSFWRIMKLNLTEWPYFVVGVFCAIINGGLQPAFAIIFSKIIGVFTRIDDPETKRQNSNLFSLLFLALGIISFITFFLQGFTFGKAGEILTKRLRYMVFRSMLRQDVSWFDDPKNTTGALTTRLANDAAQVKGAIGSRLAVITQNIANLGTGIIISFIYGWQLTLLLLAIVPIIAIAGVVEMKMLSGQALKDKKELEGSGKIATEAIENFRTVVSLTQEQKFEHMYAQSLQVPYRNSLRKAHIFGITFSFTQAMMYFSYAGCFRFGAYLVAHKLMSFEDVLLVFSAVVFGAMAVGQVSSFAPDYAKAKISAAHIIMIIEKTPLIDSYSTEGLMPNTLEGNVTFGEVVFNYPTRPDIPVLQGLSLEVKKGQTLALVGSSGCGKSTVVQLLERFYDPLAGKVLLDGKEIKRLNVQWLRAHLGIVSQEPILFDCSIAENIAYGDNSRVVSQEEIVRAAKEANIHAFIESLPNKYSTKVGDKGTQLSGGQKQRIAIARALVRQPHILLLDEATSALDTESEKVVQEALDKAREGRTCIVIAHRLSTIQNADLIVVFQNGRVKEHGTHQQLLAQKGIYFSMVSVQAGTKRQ

PEG 300
Activity [1]: inhibitor [+]
Activity [2]: inhibitor [+]

CCCCCCCC/C=C\CCCCCCCC(=O)OCCOCC(OCCO)C1OCC(OCCO)C1OCCO (stereo unspecified) [TWEEN 80]
Activity [3]: inhibitor [+]
Activity [4]: is not an inhibitor [-]

CREMOPHOR EL
Activity [5]: is not an inhibitor [-]
Activity [6]: inhibitor [+]
